US5314914A, “Methods and compositions for combatting herpes viruses” (BioMega/Boehringer Ingelheim Research Inc., priority 1988, dated 1994)

Columns and labels:
[1] = molecular target: HSV-1 ribonucleotide reductase (Human alphaherpesvirus 1 strain 17, UniProt P08543+P10224); test: HSV-1 ribonucleotide reductase inhibition (reduction of CDP); format: biochemical, herpes simplex virus type 1 (strain F); settings: for selective inhibition of the viral (HSV-1) ribonucleotide reductase over the cellular ribonucleotide reductase: HSV-1 versus hamster 96-V-2(600) ribonucleotide reductase
Sequence of HSV-1 ribonucleotide reductase (P08543 whole entry): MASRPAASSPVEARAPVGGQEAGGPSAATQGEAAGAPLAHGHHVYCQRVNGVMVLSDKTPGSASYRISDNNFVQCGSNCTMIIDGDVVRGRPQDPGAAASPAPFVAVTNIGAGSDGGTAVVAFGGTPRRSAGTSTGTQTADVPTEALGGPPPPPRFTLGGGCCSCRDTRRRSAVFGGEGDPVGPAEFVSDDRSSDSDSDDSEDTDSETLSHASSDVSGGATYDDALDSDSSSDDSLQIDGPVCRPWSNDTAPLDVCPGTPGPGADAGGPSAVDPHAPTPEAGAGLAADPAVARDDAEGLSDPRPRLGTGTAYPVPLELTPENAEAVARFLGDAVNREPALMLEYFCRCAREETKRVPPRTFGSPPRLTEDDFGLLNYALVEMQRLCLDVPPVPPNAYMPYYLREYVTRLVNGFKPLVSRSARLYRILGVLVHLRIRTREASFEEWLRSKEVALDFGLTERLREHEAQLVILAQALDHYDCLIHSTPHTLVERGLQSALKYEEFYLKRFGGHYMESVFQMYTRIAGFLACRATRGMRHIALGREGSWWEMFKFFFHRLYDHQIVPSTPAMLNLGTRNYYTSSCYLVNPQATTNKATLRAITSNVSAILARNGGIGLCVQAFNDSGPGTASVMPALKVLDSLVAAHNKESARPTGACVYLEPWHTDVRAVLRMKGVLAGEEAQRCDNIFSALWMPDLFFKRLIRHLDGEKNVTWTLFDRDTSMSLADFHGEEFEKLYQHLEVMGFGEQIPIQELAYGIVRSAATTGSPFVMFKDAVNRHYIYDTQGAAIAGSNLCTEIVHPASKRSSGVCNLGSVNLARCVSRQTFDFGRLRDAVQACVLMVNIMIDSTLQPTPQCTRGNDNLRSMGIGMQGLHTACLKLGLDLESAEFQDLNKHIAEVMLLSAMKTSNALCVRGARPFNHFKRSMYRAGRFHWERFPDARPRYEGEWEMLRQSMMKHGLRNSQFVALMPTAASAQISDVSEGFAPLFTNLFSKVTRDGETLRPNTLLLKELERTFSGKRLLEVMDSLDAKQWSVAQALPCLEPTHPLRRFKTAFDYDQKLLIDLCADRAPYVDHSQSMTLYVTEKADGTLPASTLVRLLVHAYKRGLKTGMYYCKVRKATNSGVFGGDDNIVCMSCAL
Sequence of HSV-1 ribonucleotide reductase (P10224 whole entry): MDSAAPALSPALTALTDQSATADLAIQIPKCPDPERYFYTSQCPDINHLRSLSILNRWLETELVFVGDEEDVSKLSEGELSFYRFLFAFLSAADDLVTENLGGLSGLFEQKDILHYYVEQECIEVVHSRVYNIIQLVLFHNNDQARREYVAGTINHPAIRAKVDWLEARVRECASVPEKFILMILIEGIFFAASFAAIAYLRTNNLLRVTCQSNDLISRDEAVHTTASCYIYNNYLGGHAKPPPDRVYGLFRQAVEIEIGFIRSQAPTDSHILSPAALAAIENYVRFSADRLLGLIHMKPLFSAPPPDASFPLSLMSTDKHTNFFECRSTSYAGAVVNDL

[2] = molecular target: T1, hamster 96-V-2(600) ribonucleotide reductase (Cricetulus griseus, UniProt G3I2K8+G3I3B7); test: Hamster 96-V-2(600) ribonucleotide reductase inhibition (reduction of CDP); format: biochemical, Chinese hamster; settings: partially purified enzyme 40 μg, in the presence of adenosine triphosphate (4 mM) and magnesium chloride (11.5 mM)
T1 construct: obtained from an overproducing strain of a Chinese hamster lung cell line; endogenous in cells; host or cells: overproducing strain 96-V-2(600) of a Chinese hamster lung cell line; partially purified
T1 sequence (G3I2K8 entry or part of it): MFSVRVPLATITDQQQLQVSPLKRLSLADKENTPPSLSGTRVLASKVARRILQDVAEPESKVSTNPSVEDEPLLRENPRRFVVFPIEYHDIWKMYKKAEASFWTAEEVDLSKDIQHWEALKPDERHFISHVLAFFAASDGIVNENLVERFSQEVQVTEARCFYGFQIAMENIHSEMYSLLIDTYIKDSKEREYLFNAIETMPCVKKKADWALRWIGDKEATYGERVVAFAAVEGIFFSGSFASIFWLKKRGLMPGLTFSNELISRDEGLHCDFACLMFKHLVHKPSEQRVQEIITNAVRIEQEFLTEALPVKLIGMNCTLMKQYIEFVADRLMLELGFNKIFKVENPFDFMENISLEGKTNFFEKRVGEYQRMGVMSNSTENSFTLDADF
T1 sequence (G3I3B7 entry or part of it): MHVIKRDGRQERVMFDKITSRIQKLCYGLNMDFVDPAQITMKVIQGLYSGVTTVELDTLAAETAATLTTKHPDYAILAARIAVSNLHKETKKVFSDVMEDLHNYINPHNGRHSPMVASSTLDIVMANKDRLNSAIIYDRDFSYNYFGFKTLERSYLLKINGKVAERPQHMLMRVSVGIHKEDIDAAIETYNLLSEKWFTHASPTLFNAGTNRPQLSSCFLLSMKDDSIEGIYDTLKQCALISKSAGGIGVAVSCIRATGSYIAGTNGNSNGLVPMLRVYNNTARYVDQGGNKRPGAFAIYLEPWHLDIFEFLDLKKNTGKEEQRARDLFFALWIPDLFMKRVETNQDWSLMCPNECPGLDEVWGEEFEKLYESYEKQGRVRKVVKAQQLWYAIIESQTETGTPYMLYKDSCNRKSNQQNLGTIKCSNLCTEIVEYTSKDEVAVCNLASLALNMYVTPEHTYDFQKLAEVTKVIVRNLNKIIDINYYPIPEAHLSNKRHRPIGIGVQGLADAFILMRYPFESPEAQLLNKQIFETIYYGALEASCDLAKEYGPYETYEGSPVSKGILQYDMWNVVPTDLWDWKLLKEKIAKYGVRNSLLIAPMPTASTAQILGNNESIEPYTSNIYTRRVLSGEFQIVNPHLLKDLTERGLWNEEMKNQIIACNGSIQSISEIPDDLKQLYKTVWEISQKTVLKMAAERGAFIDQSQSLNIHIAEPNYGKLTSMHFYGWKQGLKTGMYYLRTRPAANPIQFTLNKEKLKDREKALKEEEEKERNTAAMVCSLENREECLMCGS
Description: Hamster 96-V-2(600) ribonucleotide reductase (partially purified) was obtained from an overproducing strain of a Chinese hamster lung cell line as described by W. H. Lewis and P. R. Srinivasan, Mol. Cell Biol., 3, 1053 (1983).
Samples of the HSV-1 ribonucleotide reductase (65 μg with a specific activity of 26 units per mg) were mixed with increasing concentrations of the test compound, i.e. the naphthalene noted in the title of this example, in a series of tubes. Ribonucleotide reductase activity was assayed by monitoring the reduction of cytidine diphosphate (CDP) as described by Cohen et al., supra. The standard reaction mixture, in a final volume of 60 μl, contained: 50 mM, N-2-hydroxyethylpiperazine-N'-2-ethanesulfonic acid (pH 7.8); 4 mM NaF, 30 mM DL-dithiothreitol (DTT); 1 mM bacitracin, 54 μM CDP and 0.25 μCi of [^3 H]CDP. After 30 minutes of incubation at 37° C., the reaction was stopped by immersing the tube in boiling water for 4 minutes. The precipitate was removed by centrifugation. Nucleotides in the supernatant were converted to nucleosides by enzymatic hydrolysis. The deoxyribonucleosides were subsequently separated from the ribonucleosides by ascending polyethyleneimine-celulose chromatography. […] The results, shown in FIGURE 1, are expressed as a percentage of the activity obtained in the controls.

Row | Compound | selective inhibition of the viral (HSV-1) ribonucleotide reductase over the cellular ribonucleotide reductase [1] | inhibitory effect of increasing concentrations on HSV-1 ribonucleotide reductase activity (FIG. 1, percentage of control activity) ([1]; increasing concentrations of the test compound) | IC50 [2] [µM]
1 | COC1=C(OC)C(=O)c2cc(OC)ccc2C1=O [2,3,6-trimethoxy-1,4-naphthalenedione] | selective inhibition | – | –
2 | COC1=C(OC)C(=O)c2ccccc2C1=O [2,3-dimethoxy-1,4-naphthalenedione] | selective inhibition | – | –
3 | COC1=C(OC)C(=O)c2cc(Cl)ccc2C1=O [6-Chloro-2,3-dimethoxy-1,4-naphthalenedione] | selective inhibition | progressively greater inhibitory effect | > 250
4 | CCOC1=C(OCC)C(=O)c2cc(Cl)ccc2C1=O [6-chloro-2,3-diethoxy-1,4-naphthalenedione] | selective inhibition | – | –
5 | CCCOC1=C(OCCC)C(=O)c2cc(Cl)ccc2C1=O [6-chloro-2,3-dipropoxy-1,4-naphthalenedione] | selective inhibition | – | –
6 | COC1=C(OC)C(=O)c2cc(C#N)ccc2C1=O [6-cyano-2,3-dimethoxy-1,4-naphthalenedione] | selective inhibition | – | –
